Assay [1] deals with Histone deacetylase 4 (Homo sapiens, UniProt P56524). The assay is described as follows: Inhibition of recombinant human N-terminal GST-fused and C-terminal His-tagged HDAC4 (627 to 1084 residues) expressed in baculovirus infected insect cells using Boc-Lys(TFa)-AMC as substrate preincubated for 5 mins followed by substrate addition and measured after 90 mins by fluorescence assay.

In assay [2] the target is Histone deacetylase 1 (Homo sapiens, UniProt Q13547). The assay is described as follows: Inhibition of recombinant human full length C-terminal His/FLAG-tagged HDAC1 expressed in baculovirus infected Sf9 insect cells using ZMAL as substrate incubated for 90 mins by fluorescence assay.
Histone deacetylase 1, sequence (Q13547 whole entry): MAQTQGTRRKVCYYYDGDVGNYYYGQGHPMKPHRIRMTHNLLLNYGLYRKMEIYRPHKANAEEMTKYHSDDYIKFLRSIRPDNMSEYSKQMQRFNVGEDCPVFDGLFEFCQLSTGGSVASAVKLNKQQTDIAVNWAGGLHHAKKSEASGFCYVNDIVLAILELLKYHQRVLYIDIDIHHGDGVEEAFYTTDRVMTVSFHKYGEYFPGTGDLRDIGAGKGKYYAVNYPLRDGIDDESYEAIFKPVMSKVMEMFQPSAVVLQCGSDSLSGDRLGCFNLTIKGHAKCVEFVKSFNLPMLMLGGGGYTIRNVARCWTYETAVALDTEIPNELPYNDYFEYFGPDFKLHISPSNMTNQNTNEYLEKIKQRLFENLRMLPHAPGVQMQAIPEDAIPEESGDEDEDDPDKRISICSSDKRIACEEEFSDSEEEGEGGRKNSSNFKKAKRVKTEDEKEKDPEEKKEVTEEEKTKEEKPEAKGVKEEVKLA
Assay [3] deals with Histone deacetylase. The assay is described as follows: Inhibition of HDAC in human CAL27 cells using Boc-Lys(epsilon-Ac)-AMC as substrate preincubated for 18 hrs followed by substrate addition and measured after 3 hrs by fluorescence assay. Type of assay: cell-based.
The target of assay [4] is T1, Class 1 histone deacetylase (Homo sapiens, UniProt Q13547+O15379+Q92769+Q9BY41).
T1 sequence (O15379 whole entry, looked up, one chain of several): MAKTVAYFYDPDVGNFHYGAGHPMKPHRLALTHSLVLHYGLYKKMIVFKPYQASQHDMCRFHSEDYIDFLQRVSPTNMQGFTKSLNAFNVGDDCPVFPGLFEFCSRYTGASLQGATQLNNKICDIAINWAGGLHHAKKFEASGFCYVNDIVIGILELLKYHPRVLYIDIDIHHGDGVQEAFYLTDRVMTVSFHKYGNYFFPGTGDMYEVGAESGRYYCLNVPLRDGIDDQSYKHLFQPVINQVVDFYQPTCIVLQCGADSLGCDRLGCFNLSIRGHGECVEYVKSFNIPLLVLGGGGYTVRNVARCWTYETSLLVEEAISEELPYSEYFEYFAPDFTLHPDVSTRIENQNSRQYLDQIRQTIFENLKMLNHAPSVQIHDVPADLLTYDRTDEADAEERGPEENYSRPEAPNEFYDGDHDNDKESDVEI
T1 sequence (Q13547 whole entry, looked up, one chain of several): as the sequence (Q13547 whole entry) above
T1 sequence (Q92769 whole entry, looked up, one chain of several): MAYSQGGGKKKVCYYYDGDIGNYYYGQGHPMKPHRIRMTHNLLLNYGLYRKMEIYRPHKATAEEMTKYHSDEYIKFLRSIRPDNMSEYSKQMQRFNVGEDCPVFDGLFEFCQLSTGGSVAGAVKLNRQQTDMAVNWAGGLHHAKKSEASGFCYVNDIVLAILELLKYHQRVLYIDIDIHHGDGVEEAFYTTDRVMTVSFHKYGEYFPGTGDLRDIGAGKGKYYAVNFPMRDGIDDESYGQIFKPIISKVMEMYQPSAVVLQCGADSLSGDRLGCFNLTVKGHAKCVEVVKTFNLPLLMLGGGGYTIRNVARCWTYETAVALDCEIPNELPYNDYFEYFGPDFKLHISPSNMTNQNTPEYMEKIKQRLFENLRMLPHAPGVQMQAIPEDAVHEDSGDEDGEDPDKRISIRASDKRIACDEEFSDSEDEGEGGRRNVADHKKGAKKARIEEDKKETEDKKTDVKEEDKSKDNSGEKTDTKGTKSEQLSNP
The test system of assay [5] is A2780. The assay is described as follows: Cytotoxicity against human A2780 cells assessed as reduction in cell survival measured after 72 hrs by MTT assay. In kind it is functional, cell-based. As to conditions: A2780, 72 h.
In assay [6] the test system is CAL-27. The assay is described as follows: Cytotoxicity against human CAL27 cells assessed as reduction in cell survival measured after 72 hrs by MTT assay. In kind it is functional, cell-based. The conditions noted are these: CAL-27, 72 h.
Assay [7] deals with T2, Histone deacetylase 8 (Homo sapiens, UniProt Q9BY41).
T2 sequence (Q9BY41 whole entry): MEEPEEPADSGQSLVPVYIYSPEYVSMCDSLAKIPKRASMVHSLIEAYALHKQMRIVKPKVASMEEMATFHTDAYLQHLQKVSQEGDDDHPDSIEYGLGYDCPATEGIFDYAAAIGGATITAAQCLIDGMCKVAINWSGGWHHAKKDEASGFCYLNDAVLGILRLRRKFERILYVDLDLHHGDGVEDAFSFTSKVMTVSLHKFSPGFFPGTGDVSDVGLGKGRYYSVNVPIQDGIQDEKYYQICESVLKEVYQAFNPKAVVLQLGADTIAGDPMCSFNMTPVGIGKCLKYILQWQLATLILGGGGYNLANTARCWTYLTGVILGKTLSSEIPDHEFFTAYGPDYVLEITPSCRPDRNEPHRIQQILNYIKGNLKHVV
The assay is described as follows: Inhibition of recombinant human C-terminal His-fusion tagged/N-terminal Strep-2 tagged HDAC8 (1 to 377 residues) expressed in insect cells using Boc-Lys(TFa)-AMC as substrate preincubated for 5 mins followed by substrate addition measured after 90 mins by fluorescence assay.

The target of assay [8] is Histone deacetylase 3/Nuclear receptor corepressor 2 (HDAC3/NCoR2) (Homo sapiens, UniProt O15379). The assay is described as follows: biochemical. In kind it is cell-based, Sf9.
Description: Inhibition of human recombinant full length C-terminal His-tagged HDAC3 (1 to 428 residues)/N-terminal GST-tagged NCOR2 (395 to 489 residues) expressed in baculovirus infected Sf9 insect cells using Boc-Lys(epsilon-acetyl)-AMC as substrate incubated for 90 mins by fluorescence assay
The target in assay [9] is Histone deacetylase 2 (Homo sapiens, UniProt Q92769). The assay is described as follows: Inhibition of recombinant human full length C-terminal FLAG-tagged HDAC2 expressed in baculovirus infected Sf9 insect cells using Boc-Lys(epsilon-acetyl)-AMC as substrate incubated for 90 mins by fluorescence assay. In kind it is cell-based.
Histone deacetylase 2, sequence (Q92769 whole entry): as the sequence (Q92769 whole entry, looked up, one chain of several) above
The target in assay [10] is T3, Protein deacetylase HDAC6 (Homo sapiens, UniProt Q9UBN7).
T3 sequence (Q9UBN7 whole entry): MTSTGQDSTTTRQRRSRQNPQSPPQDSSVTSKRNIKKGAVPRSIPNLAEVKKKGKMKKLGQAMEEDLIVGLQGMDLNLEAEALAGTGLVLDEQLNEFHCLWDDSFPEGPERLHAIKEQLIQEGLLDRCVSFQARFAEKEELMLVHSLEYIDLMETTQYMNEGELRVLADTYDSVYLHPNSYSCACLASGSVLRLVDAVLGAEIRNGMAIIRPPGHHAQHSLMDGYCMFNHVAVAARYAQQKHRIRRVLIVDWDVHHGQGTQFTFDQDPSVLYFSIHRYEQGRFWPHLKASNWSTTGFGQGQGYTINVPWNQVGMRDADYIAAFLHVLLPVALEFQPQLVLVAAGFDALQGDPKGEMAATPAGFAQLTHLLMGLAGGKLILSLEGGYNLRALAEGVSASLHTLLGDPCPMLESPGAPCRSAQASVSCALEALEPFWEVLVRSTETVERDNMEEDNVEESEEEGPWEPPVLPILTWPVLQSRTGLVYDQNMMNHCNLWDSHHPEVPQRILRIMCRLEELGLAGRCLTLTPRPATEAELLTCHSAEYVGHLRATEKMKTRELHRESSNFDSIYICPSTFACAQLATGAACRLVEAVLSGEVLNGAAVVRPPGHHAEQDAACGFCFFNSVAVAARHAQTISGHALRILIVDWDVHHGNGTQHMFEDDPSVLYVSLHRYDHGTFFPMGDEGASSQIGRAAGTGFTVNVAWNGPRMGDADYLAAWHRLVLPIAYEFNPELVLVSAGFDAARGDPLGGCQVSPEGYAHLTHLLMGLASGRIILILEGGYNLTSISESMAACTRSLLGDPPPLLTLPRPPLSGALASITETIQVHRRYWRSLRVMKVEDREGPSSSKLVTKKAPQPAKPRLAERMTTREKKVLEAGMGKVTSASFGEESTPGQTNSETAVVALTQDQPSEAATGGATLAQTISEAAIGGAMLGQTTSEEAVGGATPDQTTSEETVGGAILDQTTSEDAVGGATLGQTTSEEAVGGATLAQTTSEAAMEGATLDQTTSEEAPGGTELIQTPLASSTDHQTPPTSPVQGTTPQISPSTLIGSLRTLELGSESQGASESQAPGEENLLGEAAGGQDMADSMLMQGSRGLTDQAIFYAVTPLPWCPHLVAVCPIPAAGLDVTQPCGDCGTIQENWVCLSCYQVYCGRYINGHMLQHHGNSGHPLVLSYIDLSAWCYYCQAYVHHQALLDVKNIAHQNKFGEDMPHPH
The assay is described as follows: Inhibition of human full length N-terminal GST-tagged HDAC6 expressed in baculovirus infected Sf9 insect cells ZMAL as substrate incubated for 90 mins by fluorescence assay. In kind it is cell-based.

For assay [11], the target named is T1, Class 1 histone deacetylase. The conditions noted are these: CAL-27.
Description: Inhibition of class 1 HDAC in human CAL27 cells assessed as potentiation of cisplatin-induced cytotoxicity by measuring combination index at 0.5 uM in presence of 10 uM cisplatin by MTT assay based Chou-Talalay analysis
Assay [12] deals with Histone deacetylase. The assay is described as follows: Inhibition of HDAC in human A2780 cells using Boc-Lys(epsilon-Ac)-AMC as substrate preincubated for 18 hrs followed by substrate addition and measured after 3 hrs by fluorescence assay. In kind it is cell-based.
For assay [13], the target named is T1, Class 1 histone deacetylase. The assay is described as follows: Inhibition of class 1 HDAC in human Cal27CisR cells assessed as potentiation of cisplatin-induced cytotoxicity by measuring combination index at 1 uM in presence of 10 uM cisplatin by MTT assay based Chou-Talalay analysis. In kind it is cell-based.
The target is the same in assay [14]. The assay is described as follows: Inhibition of class 1 HDAC in human CAL27 cells assessed as potentiation of cisplatin-induced cytotoxicity by measuring combination index at 1 uM in presence of 10 uM cisplatin by MTT assay based Chou-Talalay analysis. As to conditions: CAL-27. In kind it is cell-based.
Assay [15] shares this target. The assay is described as follows: Inhibition of class 1 HDAC in human Cal27CisR cells assessed as potentiation of cisplatin-induced cytotoxicity by measuring combination index at […] in presence of 1 uM cisplatin by MTT assay based Chou-Talalay analysis. In kind it is cell-based.

Histone deacetylase 4, sequence (P56524 whole entry, the tested form may be a part): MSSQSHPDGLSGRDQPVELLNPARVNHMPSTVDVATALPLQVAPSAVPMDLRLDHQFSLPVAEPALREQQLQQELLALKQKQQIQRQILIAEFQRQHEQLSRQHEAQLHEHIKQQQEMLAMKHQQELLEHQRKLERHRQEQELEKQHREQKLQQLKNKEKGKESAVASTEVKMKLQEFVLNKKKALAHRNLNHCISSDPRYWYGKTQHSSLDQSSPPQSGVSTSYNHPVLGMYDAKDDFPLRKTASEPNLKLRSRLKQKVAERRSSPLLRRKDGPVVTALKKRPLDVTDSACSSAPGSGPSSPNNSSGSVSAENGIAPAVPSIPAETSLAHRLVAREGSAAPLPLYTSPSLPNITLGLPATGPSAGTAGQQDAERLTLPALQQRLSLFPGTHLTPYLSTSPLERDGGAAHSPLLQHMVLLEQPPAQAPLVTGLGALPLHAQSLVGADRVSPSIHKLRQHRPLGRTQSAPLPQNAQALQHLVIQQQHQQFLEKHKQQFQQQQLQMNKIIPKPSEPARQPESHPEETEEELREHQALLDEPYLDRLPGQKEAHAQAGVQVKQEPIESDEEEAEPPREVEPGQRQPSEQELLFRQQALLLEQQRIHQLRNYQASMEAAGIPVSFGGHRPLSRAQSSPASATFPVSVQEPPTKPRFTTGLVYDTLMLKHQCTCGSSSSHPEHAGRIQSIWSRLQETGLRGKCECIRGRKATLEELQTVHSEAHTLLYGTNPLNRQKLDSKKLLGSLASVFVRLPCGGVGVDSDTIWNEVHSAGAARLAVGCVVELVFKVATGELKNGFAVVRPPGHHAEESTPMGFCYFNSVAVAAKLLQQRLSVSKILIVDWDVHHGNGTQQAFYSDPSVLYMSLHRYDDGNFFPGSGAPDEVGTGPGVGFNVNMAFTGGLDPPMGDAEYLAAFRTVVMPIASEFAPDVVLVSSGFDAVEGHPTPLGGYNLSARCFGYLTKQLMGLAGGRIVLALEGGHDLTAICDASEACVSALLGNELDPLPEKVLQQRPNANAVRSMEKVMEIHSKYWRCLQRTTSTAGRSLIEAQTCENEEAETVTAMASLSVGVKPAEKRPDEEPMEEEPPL

Turning to `CN(C)c1ccc(C(=O)N(CC(=O)NCc2ccccc2)Cc2ccc(C(=O)Nc3ccccc3N)cc2)cc1`, the IC50 in assay [1] is > 10 µM; in assay [2], 38 nM; in assay [3], 0.11 µM; in assay [5] it was 2.4 µM; in assay [6], 1.6 µM; in assay [7] it was 9.21 µM. Moreover, the concentration for half-maximal inhibition (IC50) in [8] was 586 nM; in [9], 283 nM; in assay [10] it was > 10 µM; in assay [12], 0.48 µM. Besides, the results for the CI in [4] and in [11] were 0.03 and 0.07, respectively.
As to `Cc1cc(C)cc(C(=O)N(CCCCCC(=O)Nc2cc(-c3ccccc3)ccc2N)CC(=O)NCc2ccccc2)c1`, the IC50 in [1] was > 10 µM; in [2] it was 57 nM; in [3], 0.47 µM; in assay [5] it was 17.1 µM; in assay [6] it was 18.9 µM; in assay [7], > 10 µM. Also, the IC50 in assay [9] is 1810 nM; in assay [10], > 10 µM; in assay [12], 1.43 µM. In addition, the CI was < 0.2 in assay [13], 0.53 in assay [14] and < 0.2 in assay [15].
On to `Cc1cc(C)cc(C(=O)N(CC(=O)NCc2ccccc2)Cc2ccc(C(=O)Nc3cc(-c4ccccc4)ccc3N)cc2)c1`, for which the 50% inhibitory concentration (IC50) in assay [1] was > 10 µM; in assay [2] it was 51 nM; in assay [3], 0.63 µM; in assay [6] it was 8.9 µM; in assay [7], 3.13 µM; in assay [8] it was > 10000 nM. The results for the half-inhibitory concentration (IC50) in [10] and in [12] were > 10 µM and 1.72 µM, respectively. The CI in assay [13] was 0.5; in assay [14], 0.16; in assay [4], < 0.2; in assay [15], < 0.2; in assay [11], 0.18.

The values are drawn from ChEMBL document CHEMBL4334526, “Synthesis of Peptoid-Based Class I-Selective Histone Deacetylase Inhibitors with Chemosensitizing Properties” (J Med Chem, 2019).
